Laboratory results published in the METLIN SMRT retention time set (Domingo-Almenara et al. 2019).

Assay: gradient 5% acetonitrile 3 min, to 50% in 2 min, to 85% in 15 min, held 3 min, 100 µL/min
Details: column: Zorbax Extend-C18 2.1 x 50 mm; eluents: water / acetonitrile, 0.1% formic acid
Summary of the method: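 Over 3 months, pure standards in mixtures of ~100 molecules were run by HPLC coupled to a quadrupole time-of-flight mass spectrometer in positive and negative ionization mode. The column was a Zorbax Extend-C18 (2.1 × 50 mm, 1.8 μm) at 100 μL/min, eluted with water and acetonitrile each holding 0.1% formic acid, with 40 μL dead and 900 μL dwell volumes. Retention time was determined from adduct peaks chosen by software and checked manually.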

Structure (SMILES)	RP-LC retention time
O=C(CC1CCN(C(=O)c2ccccc2)CC1)N1CCN(c2ccccn2)CC1	582 s
Cc1cc(N2C=C(C(=O)N3CCOCC3)S(=O)(=O)c3ccccc32)ccc1Br	855 s
O=C(NCCc1cccnc1)C1CN(S(=O)(=O)c2ccccc2)CC12CCCCC2 (stereo not given)	664 s
Cc1ccc(S(=O)(=O)N2CCC(n3cnnc3C)CC2)cc1Cl	736 s
Cc1cc(C)cc(NC(=O)C2CCN(S(=O)(=O)c3ccc4c(c3)NC(=O)C(C)O4)CC2)c1 (stereo not given)	903 s
CCCN(C(=O)C1CCCN(c2ncnc3c2nc2n3CCCCC2)C1)c1ccc(F)cc1 (stereo not given)	930 s
O=C(NC1CCCCCC1)c1nc(-c2ccnc(N3CCCCC3)c2)no1	883 s
Cc1ccc(NC(=O)N2CCCC2c2c(C)noc2C)cc1F (stereo not given)	809 s
O=C(Nc1ccccc1Br)c1ccc(OC(F)F)cc1	914 s
COc1ccc(N2C(=O)C3N=NN(Cc4nc(-c5cccc(C)c5)no4)C3C2=O)cc1OC (stereo not given)	911 s
Cc1nc(-c2cc(S(=O)(=O)Nc3cccc(Cl)c3C)c(C)s2)cs1	1120 s
COc1ccc(NC(=O)CN2C(=O)CCc3cc(Br)ccc32)c(OC)c1	900 s
Cc1[nH]nc(-c2ccc(S(=O)(=O)NC(C)C)o2)c1C	729 s
Cc1cc2n(n1)CCC(=O)N2CCCC(=O)NCCCOC(C)C	618 s
O=C(N/N=C/c1coc2ccccc2c1=O)c1cccnc1	663 s
CCCC(NC(=O)c1ccc(F)cc1)C(=O)Nc1nc2ccccc2[nH]1 (stereo not given)	690 s
O=S(=O)(c1ccc2nc(N3CCN(C4CCCCC4)CC3)cnc2c1)N1CCCCC1	705 s
Cc1cc(C)n(CCC(=O)N2CC(Oc3cccc(-c4nc(-c5ccccc5)no4)c3)C2)n1	1000 s
N[C@@H](CC(=O)N1CCn2c(nnc2C(F)(F)F)C1)Cc1cc(F)c(F)cc1F	675 s
Cn1c(=O)n(CC(=O)O)c(=O)c2c1nc1n2CCN1c1ccc(F)cc1	704 s
Cc1ccc(-c2nc(-c3cccc(-c4ccn[nH]4)c3)no2)cc1	1090 s

Structure (SMILES)	RP-LC retention time
CN(Cc1ccc(Cl)c(F)c1)C1CCc2nnc(C3CCOCC3)n2CC1 (stereo not given)	590 s
COc1ccc(-c2nc(-c3ccc4ncn(C(C)C)c4c3)no2)cc1OC	727 s
Cc1[nH]c(C(=O)N2CCCC(C(=O)NCc3ccccc3)C2)c(C)c1C(=O)OC(C)C (stereo not given)	860 s
CCC1(O)CCOC2(CCN(C(=O)C3CC=CC3)CC2)C1 (stereo not given)	686 s
CC(C)CC(C(=O)N1CCOCC1)N1CC2=C(C1=O)C(c1ccccc1Cl)NC(=O)N2C (stereo not given)	894 s
COC(=O)c1cc(S(=O)(=O)N2CCCC2C(=O)Nc2cccc(C#N)c2)cn1C (stereo not given)	826 s
Cc1cc(NC(=O)CN2C(=O)NC(c3ccccc3Cl)C3=C2COC3=O)ccc1Br (stereo not given)	887 s
O=C(C1CCN(c2nc3ccc(-c4cncnc4)nc3s2)CC1)N1CCCCC1	787 s
CC1CCC(NC(=O)CN2C(=O)C(C(=O)N3CCCCC3)Sc3ccccc32)CC1 (stereo not given)	1090 s
Cc1ccc(-c2[nH]ncc2CN2C[C@@H](CO)[C@H](c3ccncc3)C2)cc1	604 s
CC(C)n1c(C2CCN(C(=O)Cc3cccc(Cl)c3)C2)nc2ccncc21 (stereo not given)	567 s
O=C(NC1CCCCC1)c1ccc(Nc2c(-c3ccc(Cl)cc3)nc3cnccn23)cc1	909 s
CC1CCN(S(=O)(=O)c2ccc(-c3nnc(C(=O)NCCCc4ccccc4)o3)cc2)CC1	1150 s
Cc1ccc(-c2cc(C(=O)N3CCN(c4ccccn4)CC3)nn2C2CCS(=O)(=O)C2)cc1C (stereo not given)	674 s
CC(NC(=O)c1cccc(N(C)C)c1)C(=O)Nc1nc2ccccc2[nH]1 (stereo not given)	603 s
O=C1NC(C(=O)Nc2ccc(F)cc2)Cn2cccc21 (stereo not given)	666 s
CN(C)C(CNC(=O)Nc1cccs1)c1cccs1 (stereo not given)	556 s
Cc1cccc(-c2nc(C3CCN(C(=O)C(NC(=O)c4ccco4)C(C)C)CC3)no2)c1 (stereo not given)	1010 s
CN1C(=O)CCc2cc(NC(=O)C3CCCCC3)ccc21	752 s
O=C(Cn1ccc2ccccc21)N1CCC(COCc2ccccc2)CC1	1020 s
COCCn1cc2c3c(cccc31)CN(C(=O)c1ccc(Cl)s1)CC2	1060 s

Structure (SMILES)	RP-LC retention time
CCCc1ccc(S(=O)(=O)N2CCc3c(c(-c4nnc(-c5ccc(F)cc5)o4)nn3C)C2)cc1	1070 s
CC(C)(C)NC(=O)NC1CCN(C(=O)C2CCC2)C1 (stereo not given)	636 s
Cc1cc2c(cc1C)N(C(=O)CCl)CC(=O)N2	745 s
Cc1oc(C2CCN(C(=O)Nc3cccc(Cl)c3C)CC2)nc1C(=O)N1CCCC1	813 s
COc1ccccc1N=NNc1ccccc1OC	933 s
COc1ccccc1NC(=O)N1CCC(n2cnc3c(Cl)cccc3c2=O)CC1	830 s
CCCNc1cc(N2CCC(CCC(=O)NC(C)C)CC2)ncn1	602 s
CCOC(=O)c1[nH]c(C)c(CCC(=O)N2CCCC(C(=O)NCc3ccc(N(C)C)cc3)C2)c1C (stereo not given)	629 s
Cc1ccc(F)cc1S(=O)(=O)N1CCC(n2cnnc2C(C)C)CC1	740 s
CCCCc1ccc(NC(=O)CSc2cc(N3CCN(c4ccccc4OC)CC3)ncn2)cc1	1310 s
CN1CCCC1c1nc(C2CN(C(=O)CCc3nc4ccccc4s3)C2)no1 (stereo not given)	607 s
Cc1nccn1C1CN(C(=O)C2CCCCC2)C1	572 s
CC(C)=CCN1CCC2(CCc3ccccc32)CC1	775 s
CSc1ccc(-c2nc3cnccn3c2Nc2c(C)cccc2C)cc1	966 s
CCc1cccc(NC(=O)C2CCCN(S(=O)(=O)c3c[nH]c(C(=O)N4CCCCCC4)c3)C2)c1 (stereo not given)	911 s
CC1CCCCN1S(=O)(=O)c1ccc2nc(N3CCN(c4ccccc4F)CC3)ccc2c1 (stereo not given)	1180 s
Cc1ccc(Cl)cc1NC(=O)C1CCCN1S(=O)(=O)c1cc2c(cc1C)NC(=O)CO2 (stereo not given)	842 s
Cc1cccc(-c2nnc(C)c(N3CCC4(CC3)OCCO4)n2)c1	673 s
Cc1c(Cl)cccc1S(=O)(=O)NC1CCN(c2ccccc2)C1=O (stereo not given)	970 s

More lines, now with the values ahead:

RP-LC retention time	Structure (SMILES)
1110 s	COc1ccc(N2CCN(c3cc(SCC(=O)NCCCc4ccccc4)ncn3)CC2)cc1
1140 s	CCn1nnc(NCc2ccc(-c3cc(Cl)cc(Cl)c3)o2)n1
650 s	O=C(NCc1cc(F)ccc1F)c1ccc2ncnc(N3CCCC3)c2c1
912 s	CCn1cc(-c2nc(CC(=O)NCc3ccc(C)o3)cs2)c2cccnc21
905 s	O=C(Cn1ccc2ccc(N3CCOCC3)nc21)NCc1ccccc1Cl
716 s	COC(=O)c1cnc2nc(C)ccc2c1Nc1cc(Cl)ccc1C
1100 s	CCCN1C(=O)COc2ccc(-c3noc(COc4ccc(OC)cc4)n3)cc21
856 s	COc1ccc(Cl)cc1NC(=O)CSc1nc2nc(C)cc(C)n2n1
711 s	CSc1cccc(NC(=O)N2CCN(Cc3nc4cccnc4n3-c3ccc(F)cc3)CC2)c1
660 s	Cc1ccccc1-c1nc2cnccn2c1NCCC(=O)NCc1ccccc1F
732 s	Cc1cccc(NC(=O)CN2CCN(Cc3ccc(F)cc3)C(=O)C2=O)c1C
988 s	Cc1ccc(S(=O)(=O)CC(=O)Nc2nc(-c3ccc(F)cc3)cs2)cc1
750 s	COc1ccc(CCNC(=O)CSC2=Nc3ccc(C)cc3OC2)cc1OC
893 s	Cc1ccc(C(=O)Nc2ccc(N3CCN(c4ccccc4)C3=O)nc2)s1
722 s	CCOc1ccc(S(=O)(=O)Nc2cc(-c3cn4cccc(C)c4n3)ccc2C)cc1
1010 s	CCOC(=O)c1nc(N(C)c2ccccc2CC)c2ccccc2n1
984 s	COc1ccc(OCc2nnc3sc(-c4cc5ccccc5o4)nn23)cc1
705 s	COCC(=O)Nc1nc(-c2ccc3c(c2)NC(=O)CO3)c(C)s1
931 s	CCOc1ccc(CC(=O)Nc2ccc3c(c2)Sc2ncccc2C(=O)N3C)cc1
931 s	CCC(C)NC(=O)c1sc(-c2cn(C(C)C)c3ncccc23)nc1C (stereo not given)
953 s	CCN1C(=O)COc2cc(-c3noc(C(=O)NCCc4ccccc4)n3)ccc21
825 s	COc1ccccc1NC(=O)N1CCC(c2nnc(-c3ccccc3OC)s2)CC1
1010 s	CCN(CC)S(=O)(=O)c1ccc2c(c1)cc(C(=O)NCCc1c[nH]c3ccccc13)n2C
929 s	CCOc1ccccc1NC(=O)C1(C)Oc2cccnc2N(C)C1=O (stereo not given)
838 s	CC1CCCN(c2nn3c(C(=O)NCCc4c[nH]c5ccccc45)cc(=O)nc3s2)C1 (stereo not given)
889 s	Cn1cc(C2=CCN(S(=O)(=O)c3cccc4cccnc34)CC2)c2cccnc21
742 s	CCN1C(=O)c2cccnc2Sc2cc(CNC(=O)Cc3ccc(OC)cc3)ccc21
650 s	CCN(CC)CCNC(=O)c1ccc2cnn(Cc3ccc(F)cc3)c2c1
579 s	CC(C)n1cnc2cc(CNC(=O)c3ccsc3)ccc21
